Experiments:
COVID-19 infection [1] = experiment: Phase IIa study: COVID-19 PRO daily self-score, symptom severity score (items 1-33, 0-132); assay type: in vivo
COVID-19 infection [2] = experiment: Phase IIa study: throat-family symptom score; assay type: in vivo
COVID-19 infection [3] = experiment: Phase IIa study: smell/taste-family symptom score; assay type: in vivo; settings: for smell/taste-family symptoms, Fitzmaurice mixed effects model, Effect: Camostat vs Placebo
SARS-CoV-1 = settings: mice; reduced from 100%; concentration similar to clinically achievable concentration in humans; cited from earlier work
SARS-CoV-2 = settings: 600 mg po four times daily for up to 14 days; cited from earlier work
[4] = tested on: SARS-CoV-2 cellular entry; settings: in vitro as well as in vivo; cited from earlier work

Structure (SMILES): CN(C)C(=O)COC(=O)Cc1ccc(OC(=O)c2ccc(NC(=N)N)cc2)cc1 [camostat, 4-[[4-[(Aminoiminomethyl)amino]benzoyl]oxy]benzeneacetic acid 2-(dimethylamino)-2-oxoethyl ester]
- COVID-19 symptom severity score raw Mean (COVID-19 infection [1]; day 12): 9.6
- symptom score, Fitzmaurice mixed effects model, A: Camostat arm (COVID-19 infection [1]; day 12): 8.18 (2.69)
- symptom score, Fitzmaurice mixed effects model, B − A (placebo − camostat) (COVID-19 infection [1]; day 12): 2.39 (2.88)
- symptom severity score, ANCOVA linear mixed model, A: Camostat arm (COVID-19 infection [1]; day 12): −22.87 (2.22)
- symptom severity score, ANCOVA linear mixed model, B − A (placebo − camostat) (COVID-19 infection [1]; day 12): 1.46 (3.09)
- symptom severity score, Negative binomial model, A: Camostat arm (COVID-19 infection [1]; day 12): 9.06 (2.18)
- symptom severity score, Negative binomial model, B − A (COVID-19 infection [1]; day 12): 0.94 (0.25)
- COVID-19 symptom severity score raw Mean (COVID-19 infection [1]; day 13): 9.7
- symptom score, Fitzmaurice mixed effects model, A: Camostat arm (COVID-19 infection [1]; day 13): 7.87 (2.75)
- symptom score, Fitzmaurice mixed effects model, B − A (placebo − camostat) (COVID-19 infection [1]; day 13): 2.11 (2.95)
- symptom severity score, ANCOVA linear mixed model, A: Camostat arm (COVID-19 infection [1]; day 13): −23.17 (2.29)
- symptom severity score, ANCOVA linear mixed model, B − A (placebo − camostat) (COVID-19 infection [1]; day 13): 1.17 (3.15)
- symptom severity score, Negative binomial model, A: Camostat arm (COVID-19 infection [1]; day 13): 8.9 (2.27)
- symptom severity score, Negative binomial model, B − A (COVID-19 infection [1]; day 13): 0.88 (0.26)
- COVID-19 symptom severity score raw Mean (COVID-19 infection [1]; day 14): 8.2
- symptom score, Fitzmaurice mixed effects model, A: Camostat arm (COVID-19 infection [1]; day 14): 7.8 (2.75)
- symptom score, Fitzmaurice mixed effects model, B − A (placebo − camostat) (COVID-19 infection [1]; day 14): 2.24 (2.97)
- symptom severity score, ANCOVA linear mixed model, A: Camostat arm (COVID-19 infection [1]; day 14): −23.26 (2.29)
- symptom severity score, ANCOVA linear mixed model, B − A (placebo − camostat) (COVID-19 infection [1]; day 14): 1.32 (3.16)
- symptom severity score, Negative binomial model, A: Camostat arm (COVID-19 infection [1]; day 14): 8.11 (2.11)
- symptom severity score, Negative binomial model, B − A (COVID-19 infection [1]; day 14): 1.03 (0.31)
- symptom severity scores compared to placebo (COVID-19 infection [1]; days 5 through 10, did not reach statistical significance): lower
- throat-family symptom score, Fitzmaurice model, Camostat (COVID-19 infection [2]; day 0): 2.3 (0.3)
- throat-family symptom score, Fitzmaurice model, Camostat (COVID-19 infection [2]; day 1): 2 (0.3)
- throat-family symptom score, Fitzmaurice model, Effect (placebo vs camostat) (COVID-19 infection [2]; day 1): −0.7 (0.4)
- throat-family symptom score, Fitzmaurice model, Camostat (COVID-19 infection [2]; day 2): 1.7 (0.4)
- throat-family symptom score, Fitzmaurice model, Effect (placebo vs camostat) (COVID-19 infection [2]; day 2): −0.8 (0.4)
- throat-family symptom score, Fitzmaurice model, Camostat (COVID-19 infection [2]; day 3): 1.6 (0.3)
- throat-family symptom score, Fitzmaurice model, Effect (placebo vs camostat) (COVID-19 infection [2]; day 3): −0.7 (0.4)
- throat-family symptom score, Fitzmaurice model, Camostat (COVID-19 infection [2]; day 4): 1.7 (0.3)
- throat-family symptom score, Fitzmaurice model, Effect (placebo vs camostat) (COVID-19 infection [2]; day 4): −0.9 (0.4)
- throat-family symptom score, Fitzmaurice model, Camostat (COVID-19 infection [2]; day 5): 1.1 (0.3)
- throat-family symptom score, Fitzmaurice model, Effect (placebo vs camostat) (COVID-19 infection [2]; day 5): −0.2 (0.4)
- throat-family symptom score, Fitzmaurice model, Camostat (COVID-19 infection [2]; day 6): 0.9 (0.4)
- throat-family symptom score, Fitzmaurice model, Effect (placebo vs camostat) (COVID-19 infection [2]; day 6): −0.1 (0.4)
- throat-family symptom score, Fitzmaurice model, Camostat (COVID-19 infection [2]; day 7): 0.7 (0.4)
- throat-family symptom score, Fitzmaurice model, Effect (placebo vs camostat) (COVID-19 infection [2]; day 7): −0.3 (0.4)
- throat-family symptom score, Fitzmaurice model, Camostat (COVID-19 infection [2]; day 8): 0.6 (0.4)
- throat-family symptom score, Fitzmaurice model, Effect (placebo vs camostat) (COVID-19 infection [2]; day 8): −0.2 (0.4)
- throat-family symptom score, Fitzmaurice model, Camostat (COVID-19 infection [2]; day 9): 0.4 (0.4)
- throat-family symptom score, Fitzmaurice model, Effect (placebo vs camostat) (COVID-19 infection [2]; day 9): −0.1 (0.4)
- throat-family symptom score, Fitzmaurice model, Camostat (COVID-19 infection [2]; day 10): 0.5 (0.4)
- throat-family symptom score, Fitzmaurice model, Effect (placebo vs camostat) (COVID-19 infection [2]; day 10): −0.4 (0.4)
- throat-family symptom score, Fitzmaurice model, Camostat (COVID-19 infection [2]; day 11): 0.6 (0.4)
- throat-family symptom score, Fitzmaurice model, Effect (placebo vs camostat) (COVID-19 infection [2]; day 11): −0.4 (0.4)
- throat-family symptom score, Fitzmaurice model, Camostat (COVID-19 infection [2]; day 12): 0.5 (0.4)
- throat-family symptom score, Fitzmaurice model, Effect (placebo vs camostat) (COVID-19 infection [2]; day 12): −0.4 (0.4)
- throat-family symptom score, Fitzmaurice model, Camostat (COVID-19 infection [2]; day 13): 0.5 (0.4)
- throat-family symptom score, Fitzmaurice model, Effect (placebo vs camostat) (COVID-19 infection [2]; day 13): −0.4 (0.5)
- throat-family symptom score, Fitzmaurice model, Camostat (COVID-19 infection [2]; day 14): 0.5 (0.4)
- throat-family symptom score, Fitzmaurice model, Effect (placebo vs camostat) (COVID-19 infection [2]; day 14): −0.5 (0.5)
- smell/taste-family symptoms, Fitzmaurice mixed effects model, Camostat (COVID-19 infection [3]; Day 0): 1.4 (0.2)
- smell/taste-family symptoms, Fitzmaurice mixed effects model, Camostat (COVID-19 infection [3]; Day 1): 1.4 (0.2)
- smell/taste-family symptoms, Fitzmaurice mixed effects model, Effect (COVID-19 infection [3]; Day 1): 0.5 (0.3)
- smell/taste-family symptoms, Fitzmaurice mixed effects model, Camostat (COVID-19 infection [3]; Day 2): 1.4 (0.2)
- smell/taste-family symptoms, Fitzmaurice mixed effects model, Effect (COVID-19 infection [3]; Day 2): 0.7 (0.3)
- smell/taste-family symptoms, Fitzmaurice mixed effects model, Camostat (COVID-19 infection [3]; Day 3): 1.3 (0.2)
- smell/taste-family symptoms, Fitzmaurice mixed effects model, Effect (COVID-19 infection [3]; Day 3): 1 (0.3)
- smell/taste-family symptoms, Fitzmaurice mixed effects model, Camostat (COVID-19 infection [3]; Day 4): 1.2 (0.2)
- smell/taste-family symptoms, Fitzmaurice mixed effects model, Effect (COVID-19 infection [3]; Day 4): 1 (0.3)
- smell/taste-family symptoms, Fitzmaurice mixed effects model, Camostat (COVID-19 infection [3]; Day 5): 1.1 (0.2)
- smell/taste-family symptoms, Fitzmaurice mixed effects model, Effect (COVID-19 infection [3]; Day 5): 1.2 (0.3)
- smell/taste-family symptoms, Fitzmaurice mixed effects model, Camostat (COVID-19 infection [3]; Day 6): 1 (0.2)
- smell/taste-family symptoms, Fitzmaurice mixed effects model, Effect (COVID-19 infection [3]; Day 6): 0.7 (0.3)
- smell/taste-family symptoms, Fitzmaurice mixed effects model, Camostat (COVID-19 infection [3]; Day 7): 0.8 (0.2)
- smell/taste-family symptoms, Fitzmaurice mixed effects model, Effect (COVID-19 infection [3]; Day 7): 0.7 (0.3)
- smell/taste-family symptoms, Fitzmaurice mixed effects model, Camostat (COVID-19 infection [3]; Day 8): 0.8 (0.2)
- smell/taste-family symptoms, Fitzmaurice mixed effects model, Effect (COVID-19 infection [3]; Day 8): 0.8 (0.3)
- smell/taste-family symptoms, Fitzmaurice mixed effects model, Camostat (COVID-19 infection [3]; Day 9): 0.9 (0.2)
- smell/taste-family symptoms, Fitzmaurice mixed effects model, Effect (COVID-19 infection [3]; Day 9): 0.6 (0.3)
- smell/taste-family symptoms, Fitzmaurice mixed effects model, Camostat (COVID-19 infection [3]; Day 10): 0.9 (0.2)
- smell/taste-family symptoms, Fitzmaurice mixed effects model, Effect (COVID-19 infection [3]; Day 10): 0.5 (0.3)
- smell/taste-family symptoms, Fitzmaurice mixed effects model, Camostat (COVID-19 infection [3]; Day 11): 0.9 (0.2)
- smell/taste-family symptoms, Fitzmaurice mixed effects model, Effect (COVID-19 infection [3]; Day 11): 0.3 (0.3)
- smell/taste-family symptoms, Fitzmaurice mixed effects model, Camostat (COVID-19 infection [3]; Day 12): 0.9 (0.2)
- smell/taste-family symptoms, Fitzmaurice mixed effects model, Effect (COVID-19 infection [3]; Day 12): 0.2 (0.3)
- smell/taste-family symptoms, Fitzmaurice mixed effects model, Camostat (COVID-19 infection [3]; Day 13): 0.7 (0.3)
- smell/taste-family symptoms, Fitzmaurice mixed effects model, Effect (COVID-19 infection [3]; Day 13): 0.4 (0.3)
- smell/taste-family symptoms, Fitzmaurice mixed effects model, Camostat (COVID-19 infection [3]; Day 14): 0.8 (0.3)
- smell/taste-family symptoms, Fitzmaurice mixed effects model, Effect (COVID-19 infection [3]; Day 14): 0.4 (0.3)
- mortality following SARS-CoV-1 infection (SARS-CoV-1): 30-35%
- time required for a negative SARS-CoV-2 test (primary endpoint) (SARS-CoV-2): did not show efficacy
- SARS-CoV-2 cellular entry [4]: can be blocked
